Like-named read-outs stand apart in the source and are kept apart here. Each block holds one molecule with its values, some of them ahead of it.
Tests used:
[1] = molecular target: T1, hSGLT2 (Homo sapiens, UniProt P31639); parameters: method as in Koga et al. [2013]; conditions: ref Koga et al. [2013], cited from earlier work
T1 sequence (P31639 1-672): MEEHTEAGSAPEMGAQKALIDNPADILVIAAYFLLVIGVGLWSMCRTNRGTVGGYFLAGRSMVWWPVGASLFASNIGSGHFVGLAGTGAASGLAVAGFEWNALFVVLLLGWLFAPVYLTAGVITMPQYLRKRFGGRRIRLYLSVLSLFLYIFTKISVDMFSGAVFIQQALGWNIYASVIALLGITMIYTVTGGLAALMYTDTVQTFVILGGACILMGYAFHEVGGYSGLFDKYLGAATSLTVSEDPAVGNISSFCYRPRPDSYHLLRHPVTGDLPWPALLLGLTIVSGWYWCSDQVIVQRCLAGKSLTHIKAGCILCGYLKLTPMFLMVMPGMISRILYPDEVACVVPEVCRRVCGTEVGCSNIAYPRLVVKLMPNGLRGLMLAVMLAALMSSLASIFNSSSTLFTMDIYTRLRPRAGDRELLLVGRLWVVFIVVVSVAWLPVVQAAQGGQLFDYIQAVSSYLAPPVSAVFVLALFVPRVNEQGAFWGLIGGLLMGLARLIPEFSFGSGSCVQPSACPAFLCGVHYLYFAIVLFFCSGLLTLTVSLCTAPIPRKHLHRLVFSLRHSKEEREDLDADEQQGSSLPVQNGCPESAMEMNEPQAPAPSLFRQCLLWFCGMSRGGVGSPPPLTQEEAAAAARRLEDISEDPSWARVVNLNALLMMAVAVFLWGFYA

[2] = parameters: method as in Koga et al. [2013]; conditions: ref Koga et al. [2013]; cited from earlier work
[3] = molecular target: T2, hSGLT1 (Homo sapiens, UniProt P13866); conditions: 300 nmol/L TA-3404, 50 μmol/L α-MDG, HEK-293T, 37°C
T2 sequence (P13866 1-664): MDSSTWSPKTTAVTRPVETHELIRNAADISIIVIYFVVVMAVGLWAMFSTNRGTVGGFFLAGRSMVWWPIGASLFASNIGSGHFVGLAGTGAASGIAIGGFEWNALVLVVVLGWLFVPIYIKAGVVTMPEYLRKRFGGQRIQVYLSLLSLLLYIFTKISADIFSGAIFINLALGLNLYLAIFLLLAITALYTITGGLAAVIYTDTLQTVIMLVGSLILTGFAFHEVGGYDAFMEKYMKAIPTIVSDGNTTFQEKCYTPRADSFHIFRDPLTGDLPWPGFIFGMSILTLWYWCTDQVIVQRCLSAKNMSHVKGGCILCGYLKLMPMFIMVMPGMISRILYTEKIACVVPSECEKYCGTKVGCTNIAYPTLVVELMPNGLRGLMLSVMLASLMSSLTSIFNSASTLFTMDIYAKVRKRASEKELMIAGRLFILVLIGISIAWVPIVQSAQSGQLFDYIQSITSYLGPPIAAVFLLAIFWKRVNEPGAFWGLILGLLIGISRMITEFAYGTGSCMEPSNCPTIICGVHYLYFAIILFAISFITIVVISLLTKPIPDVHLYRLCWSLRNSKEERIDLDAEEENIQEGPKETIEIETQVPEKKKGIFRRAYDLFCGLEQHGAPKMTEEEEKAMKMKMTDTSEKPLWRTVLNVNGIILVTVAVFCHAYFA
Procedure: In brief, cells were incubated for 30 min in 50 μmol/L [^14C]‐α‐Methyl‐D‐glucopyranoside (GE HealthCare Life Sciences, Piscataway, NJ), a specific substrate for SGLTs, and washed in cold Choline buffer three times. The cells were solubilized and a sample was assayed using scintillation counting. Uptake was normalized to total cellular protein. For each tested condition, the sample size was n = 3–4 wells and each experiment was repeated at least twice.

[4] = molecular target: T2, hSGLT1; assay: Whole-cell patch clamp, glucose-induced current, extracellular inhibitor, HEK-293T cells expressing hSGLT1
Procedure: In brief, 2 days after transfection cells were plated on 12‐mm poly‐L‐lysine‐coated glass coverslips and selected on the basis of fluorescence intensity using a Nikon diaphot epifluorescence microscope (Nikon, Tokyo, Japan). During the experiment cells were kept at the holding potential Vh = −60 mV. […] Currents were filtered at 2 kHz and digitized at 1 kHz.
Glucose currents (IGlu) were obtained by subtracting the baseline current recorded in Na^+ buffer to the total current measured in Na^+ buffer + glucose: [drawing 1]
The inhibition constant (IC50) was determined by measuring the sugar‐dependent steady‐state current or radiotracer uptake as a function of external inhibitor concentration.
The D‐glucose‐coupled current recovery follows an exponential time course with time constant 1/koff and half‐time for recovery (t1/2,off) related to the off rate: [drawing 3]
The ON rate (kon) is calculated from the empirically measured Ki values and koff values: [drawing 4]
To calculate the dissociation constant (koff) we measured the recovery time of SGLT glucose‐induced current when the inhibitor is rapidly removed from the extracellular solution.

[5] = molecular target: T1, hSGLT2; assay: [14C]-αMDG uptake in HEK-293T cells expressing hSGLT2; type: cell-based; parameters: transfected with 1 μg of the vector containing the hSGLT2 or hSGLT1 coding region; expressed in transfected cells; host or cells: HEK-293T
Procedure: Uptake was normalized to total cellular protein.
We decided to use two different approaches due to the fact that hSGLT2 has low expression, yielding small glucose‐induced currents. For radiotracer uptake experiments, tracer entry in the cell is measured over the period of 30 min leading to a higher sensitivity of the method.

[6] = molecular target: T1, hSGLT2; assay: Whole-cell patch clamp, glucose-induced current, extracellular inhibitor, HEK-293T cells expressing hSGLT2; type: cell-based; parameters: transfected with 1 μg of the vector containing the hSGLT2 or hSGLT1 coding region; expressed in transfected cells; host or cells: HEK-293T
[7] = molecular target: T1, hSGLT2; assay: Whole-cell patch clamp, inward glucose current with inhibitor in the intracellular (pipette) solution, hSGLT2; type: cell-based; parameters: transfected with 1 μg of the vector containing the hSGLT2 or hSGLT1 coding region; expressed in transfected cells; host or cells: HEK-293T
Description: (§1) The intracellular NaCl concentration was maintained at either 5 or 150 mmol/L using CsCl to replace NaCl (Fig. 5A and B).

[8] = molecular target: T2, hSGLT1; assay: Whole-cell patch clamp, inward glucose current with inhibitor in the intracellular (pipette) solution, hSGLT1; type: cell-based; parameters: transfected with 1 μg of the vector containing the hSGLT2 or hSGLT1 coding region; expressed in transfected cells; host or cells: HEK-293T
Description: as §1

[9] = tested on: hSGLT2 over hSGLT1; parameters: method as in Nomura et al. [2010]; conditions: from IC50; ref Nomura et al. [2010]; cited from earlier work
[10] = tested on: renal glucose reabsorption; conditions: cited from earlier work
[11] = molecular target: T1, hSGLT2; parameters: transfected with 1 μg of the vector containing the hSGLT2 or hSGLT1 coding region; expressed in transfected cells; host or cells: HEK-293T; conditions: ref Hummel et al. [2011], cited from earlier work
[12] = after 24 h, single clinical oral dose; ref Hummel et al. [2012]; cited from earlier work
[13] = physiological conditions, HEK293T cells
[14] = ref Chasis et al. [1933], Silverman [1974]

inhibition of hSGLT1 uptake [3]: 10% | IC50 [4]: 300 ± 61 nM | Ki [4]: 150 nM | half-time of recovery of hSGLT1 current (t1/2,off) ([4]; after removal of inhibitor, n = 5): 5.4 ± 0.4 s | koff, hSGLT1 ([4]; from half-time of current recovery): 0.2 per sec | inhibition of hSGLT2 sugar uptake ([5]; 2 nmol/L TA-3404, 50 μmol/L α-MDG, HEK-293T, 37°C): 50% | IC50 ([5]; 50 μmol/L [14C]-αMDG, 1-500 nmol/L extracellular TA-3404, HEK-293T, read-out: IC50, [14C]-αMDG uptake, hSGLT2): 3.9 ± 2.2 nM | affinity of hSGLT2 higher than for hSGLT1 ([5]; HEK-293T): about 75 fold | IC50 ([5]; as stated in the abstract, read-out: IC50, extracellular inhibition of glucose inward SGLT2 transport): 2 nM | Ki ([5]; from IC50 (IC50 is twice the Ki), extracellular): ~2 nM | inhibition of glucose-induced inward current, hSGLT2 ([6]; 300 nmol/L extracellular TA-3404, 100 mmol/L glucose, -60 mV, 37°C): completely inhibited | half-time of recovery of hSGLT2 current (t1/2,off) ([6]; after removal of inhibitor, reversible ~50% component, n = 3): 17 ± 0.5 s | kon, hSGLT2 ([6]; calculated from Ki and koff): 1.4 × 10^6 mol/L per sec | recovery of hSGLT2 current after removing the inhibitor ([6]; washout, no further recovery over 5 min): ~ 50% | inhibition of inward hSGLT2 Na+/glucose current ([7]; 200 nmol/L TA-3404 intracellular, 5 mmol/L intracellular Na+, 100 mmol/L glucose, -60 mV): did not inhibit | inhibition of inward hSGLT2 glucose current ([7]; 200 nmol/L TA-3404 intracellular, 150 mmol/L intracellular Na+): no significant inhibition | intracellular affinity of hSGLT2 lower than the extracellular affinity ([7]; intracellular versus extracellular): at least 100 | inhibition of SGLT2 from the intracellular compartment ([7]; low (5 mmol/L) and high (150 mmol/L) intracellular NaCl): ineffective | inhibition of Na+/glucose currents generated by hSGLT2, inhibitor in the cytoplasm [7, 13]: does not inhibit | effect on inward hSGLT1 Na+/glucose current ([8]; 200 nmol/L TA-3404 intracellular, 5 mmol/L NaCl in the pipette, 10 mmol/L glucose): no effect | effect on hSGLT1 glucose-induced current ([8]; 200 nmol/L TA-3404 intracellular, 150 mmol/L Na+ in the pipette): did not detect any significant effect | inhibition of Na+/glucose currents generated by hSGLT1, inhibitor in the cytoplasm [8, 13]: does not inhibit
Compound: OC[C@H]1O[C@@H](c2ccc(Cl)c(Cc3ccc(-c4ccc(F)nc4)s3)c2)[C@H](O)[C@@H](O)[C@@H]1O [TA‐3404]
IC50 ([1]; CHOK1 cells overexpressing hSGLT2, read-out: IC50, Na+-dependent 14C-α-MDG uptake, SGLT2): 2 nM | selectivity for SGLT2 vs. SGLT1 ([1]; CHOK1 cells, ratio of IC50): ~ 350 fold | pharmacokinetic profiles [2]: favorable pharmacokinetic profiles | urine glucose excretion [2]: increased urine glucose excretion

Compound: Cc1ccc([C@@H]2O[C@H](CO)[C@@H](O)[C@H](O)[C@H]2O)cc1Cc1ccc(-c2ccc(F)cc2)s1 [Canagliflozin, canagliflozin]
selectivity for hSGLT2 over hSGLT1 [9]: 414 fold

Compound: O=C(CCc1ccc(O)cc1)c1c(O)cc(O)cc1O[C@@H]1O[C@H](CO)[C@@H](O)[C@H](O)[C@H]1O [phlorizin]
glomerular filtration [10, 14]: freely filtered | glucose reabsorption [10, 14]: completely blocks glucose reabsorption | route of excretion ([10]; ref Silverman [1974]): mainly excreted into the urine | effect on sugar uptake by hSGLT2 ([5]; 100 μmol/L phlorizin, 50 μmol/L α-MDG, HEK-293T): to the level observed in untransfected cells | Off rate, hSGLT2 ([11]; phlorizin): 0.3 per sec | half-time of recovery of hSGLT2 current (t1/2,off) [11]: 24 s

Compound: CCOc1ccc(Cc2cc([C@@H]3O[C@H](CO)[C@@H](O)[C@H](O)[C@H]3O)ccc2Cl)cc1 [dapagliflozin]
free plasma concentration [12]: 0.025 µM | Off rate of binding to hSGLT2 [11]: very slow Off rate
